Reference: PMC3265452 (PLoS Neglected Tropical Diseases, 2012)
Where a name gives a salt, the structure may show the parent alone. Read-outs that look alike come from different tables or passages of the source.

Target: AaDOP2 (Aedes aegypti, UniProt H6D5H2)
Assay: AaDOP2 antagonist screen of the LOPAC1280 library (HEK-CRELuc-Aadop2 cells, luminescence)
Assay type: cell-based
[1] = 10 µM compound, 300 nM dopamine, 2 hr, hit = compound effect <20

Chain of AaDOP2 (H6D5H2 1-476): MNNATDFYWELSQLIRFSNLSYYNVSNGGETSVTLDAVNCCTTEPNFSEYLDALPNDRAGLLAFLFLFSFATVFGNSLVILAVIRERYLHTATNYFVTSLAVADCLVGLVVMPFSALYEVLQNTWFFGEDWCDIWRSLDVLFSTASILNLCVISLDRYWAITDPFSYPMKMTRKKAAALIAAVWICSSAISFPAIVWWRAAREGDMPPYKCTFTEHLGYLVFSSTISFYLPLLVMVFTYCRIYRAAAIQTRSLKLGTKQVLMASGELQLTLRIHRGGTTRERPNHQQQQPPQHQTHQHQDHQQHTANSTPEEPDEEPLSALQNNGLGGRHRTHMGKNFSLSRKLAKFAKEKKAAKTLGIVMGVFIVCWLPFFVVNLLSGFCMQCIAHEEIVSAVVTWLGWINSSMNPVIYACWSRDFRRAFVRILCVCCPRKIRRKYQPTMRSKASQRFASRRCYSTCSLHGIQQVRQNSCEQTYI

## C[C@H](Cc1ccc2c(c1)OC(C(=O)O)(C(=O)O)O2)NC[C@H](O)c1cccc(Cl)c1 [Compound 278, CL 316,243]
  Compound effect (percent receptor signaling in presence of test compound, relative lux units relative to the SCH23390 control): 101

## Oc1cc(-c2ccccc2)nc2nc(Cl)ccc12 [Compound 279, 7-Chloro-4-hydroxy-2-phenyl-1,8-naphthyridine]
  Compound effect (percent receptor signaling in presence of test compound, relative lux units relative to the SCH23390 control): 100

## Clc1ccccc1C(c1ccccc1)(c1ccccc1)n1ccnc1 [Compound 280, Clotrimazole]
  Compound effect (percent receptor signaling in presence of test compound, relative lux units relative to the SCH23390 control): 77

## CN1CCC(=C2c3ccccc3C=Cc3ccccc32)CC1 [Compound 281, Cyproheptadine hydrochloride]
  Compound effect (percent receptor signaling in presence of test compound, relative lux units relative to the SCH23390 control): 86

## Nc1ncnc2c1ncn2[C@@H]1O[C@H](C(=O)NC2CC2)[C@@H](O)[C@H]1O [Compound 282, 5'-(N-Cyclopropyl)carboxamidoadenosine]
[1]
  Compound effect (percent receptor signaling in presence of test compound, relative lux units relative to the SCH23390 control): 82%

## CO[C@@]1(NC(=O)CSCC#N)C(=O)N2C(C(=O)O)=C(CSc3nnnn3C)CS[C@@H]21 [Compound 283, Cefmetazole sodium]
  Compound effect (percent receptor signaling in presence of test compound, relative lux units relative to the SCH23390 control): 74

## CCN(CC)CCCC(C)Nc1ccnc2cc(Cl)ccc12 (stereo not drawn) [Compound 286, Chloroquine diphosphate]
  Compound effect (percent receptor signaling in presence of test compound, relative lux units relative to the SCH23390 control): 83

## CCOC(=O)C(C)(C)Oc1ccc(Cl)cc1 [Compound 287, Clofibrate]
  Compound effect (percent receptor signaling in presence of test compound, relative lux units relative to the SCH23390 control): 74

## Cl.Nc1ccn([C@@H]2O[C@H](CO)[C@@H](O)[C@@H]2O)c(=O)n1 [Compound 288, Cytosine-1-beta-D-arabinofuranoside hydrochloride]
[1]
  Compound effect (percent receptor signaling in presence of test compound, relative lux units relative to the SCH23390 control): 92%

## CCCN(CCC)C(=O)Cc1c(-c2ccc(Cl)cc2)nc2c(Cl)cc(Cl)cn12 [Compound 289, CB34]
  Compound effect (percent receptor signaling in presence of test compound, relative lux units relative to the SCH23390 control): 106

## N[C@@H](C(=O)N[C@@H]1C(=O)N2C(C(=O)O)=C(Cl)CS[C@H]12)c1ccccc1 [Compound 290, Cefaclor]
  Compound effect (percent receptor signaling in presence of test compound, relative lux units relative to the SCH23390 control): 87

## C[N+](C)(C)CC#CCOC(=O)Nc1cccc(Cl)c1.[Cl-] [Compound 292, McN-A-343]
  Compound effect (percent receptor signaling in presence of test compound, relative lux units relative to the SCH23390 control): 121

## COc1cccc(C(=O)NCCN2CCN(c3ccc(Cl)cc3)CC2)c1 [Compound 293, N-(2-[4-(4-Chlorophenyl)piperazin-1-yl]ethyl)-3-methoxybenzamide]
  Compound effect (percent receptor signaling in presence of test compound, relative lux units relative to the SCH23390 control): 95

## NCCSSCCN [Compound 294, Cystamine dihydrochloride]
  Compound effect (percent receptor signaling in presence of test compound, relative lux units relative to the SCH23390 control): 84

## CNc1ccc2oc(C[C@H]3O[C@@]4(CC[C@H]3C)O[C@H]([C@H](C)C(=O)c3ccc[nH]3)[C@H](C)C[C@H]4C)nc2c1C(=O)O [Compound 296, Calcimycin]
  Compound effect (percent receptor signaling in presence of test compound, relative lux units relative to the SCH23390 control): 102

## C[C@@]12C(=O)OC(=O)[C@]1(C)[C@H]1CC[C@@H]2O1 [Compound 297, Cantharidin]
  Compound effect (percent receptor signaling in presence of test compound, relative lux units relative to the SCH23390 control): 96

## CN(C)CCCC1(c2ccc(F)cc2)OCc2cc(C#N)ccc21 (stereo not drawn) [Compound 298, Citalopram hydrobromide]
  Compound effect (percent receptor signaling in presence of test compound, relative lux units relative to the SCH23390 control): 90

## Clc1cccc(Cl)c1N=C1NCCN1 [Compound 299, Clonidine hydrochloride]
  Compound effect (percent receptor signaling in presence of test compound, relative lux units relative to the SCH23390 control): 100

## CO/N=C(\C(=O)N[C@@H]1C(=O)N2C(C(=O)O)=C(COC(C)=O)CS[C@H]12)c1csc(N)n1 [Compound 300, Cefotaxime sodium]
  Compound effect (percent receptor signaling in presence of test compound, relative lux units relative to the SCH23390 control): 93

## CN(C(=O)CCCOc1ccc2[nH]c(=O)ccc2c1)C1CCCCC1 [Compound 301, Cilostamide]
  Compound effect (percent receptor signaling in presence of test compound, relative lux units relative to the SCH23390 control): 88

## O=C(O)c1cc(O)cc(C(=O)O)n1 [Compound 302, Chelidamic acid]
  Compound effect (percent receptor signaling in presence of test compound, relative lux units relative to the SCH23390 control): 82

## OC[C@H]1O[C@@H](n2cnc3c(NC4CCCC4)ncnc32)[C@H](O)[C@@H]1O [Compound 303, N6-Cyclopentyladenosine]
  Compound effect (percent receptor signaling in presence of test compound, relative lux units relative to the SCH23390 control): 89

## CC1(C(=O)O)C2CCC(O2)C1(C)C(=O)O (stereo not drawn) [Compound 304, Cantharidic Acid]
  Compound effect (percent receptor signaling in presence of test compound, relative lux units relative to the SCH23390 control): 120

## CN(C)CCCN1c2ccccc2Sc2ccc(Cl)cc21 [Compound 305, Chlorpromazine hydrochloride]
  Compound effect (percent receptor signaling in presence of test compound, relative lux units relative to the SCH23390 control): 95

## NC(=O)c1cc[n+](CC2=C(C(=O)[O-])N3C(=O)[C@@H](NC(=O)[C@@H](c4ccccc4)S(=O)(=O)[O-])[C@H]3SC2)cc1.[Na+] [Compound 306, Cefsulodin sodium salt hydrate]
[1]
  Compound effect (percent receptor signaling in presence of test compound, relative lux units relative to the SCH23390 control): 108%

## O=C(/C=C/c1ccc(O)c(O)c1)OCCc1ccccc1 [Compound 307, Caffeic acid phenethyl ester]
  Compound effect (percent receptor signaling in presence of test compound, relative lux units relative to the SCH23390 control): 147

## CC(=O)OCC1=C(C(=O)O)N2C(=O)[C@@H](NC(=O)CSc3ccncc3)[C@H]2SC1 [Compound 308, Cephapirin sodium]
  Compound effect (percent receptor signaling in presence of test compound, relative lux units relative to the SCH23390 control): 116

## CC1=C(C(=O)O)N2C(=O)[C@@H](NC(=O)[C@H](N)C3=CCC=CC3)[C@H]2SC1 [Compound 309, Cephradine]
  Compound effect (percent receptor signaling in presence of test compound, relative lux units relative to the SCH23390 control): 79

## CCN(CCCl)Cc1ccccc1Br.Cl [Compound 310, DSP-4 hydrochloride]
  Compound effect (percent receptor signaling in presence of test compound, relative lux units relative to the SCH23390 control): 111

## CCn1nc(C(=O)O)c(=O)c2cc3c(cc21)OCO3 [Compound 311, Cinoxacin]
  Compound effect (percent receptor signaling in presence of test compound, relative lux units relative to the SCH23390 control): 135

## CCCC(C)(COC(N)=O)COC(=O)NC(C)C (stereo not drawn) [Compound 312, Carisoprodol]
  Compound effect (percent receptor signaling in presence of test compound, relative lux units relative to the SCH23390 control): 130

## CN(C)CCOC(=O)COc1ccc(Cl)cc1 [Compound 313, Centrophenoxine hydrochloride]
  Compound effect (percent receptor signaling in presence of test compound, relative lux units relative to the SCH23390 control): 99

## Cl.N[C@@H](CCl)C(=O)O [Compound 315, beta-Chloro-L-alanine hydrochloride]
  Compound effect (percent receptor signaling in presence of test compound, relative lux units relative to the SCH23390 control): 99

## Oc1ccccc1O [Compound 316, Pyrocatechol]
  Compound effect (percent receptor signaling in presence of test compound, relative lux units relative to the SCH23390 control): 101

## O=C(N[C@@H](Cc1ccccc1)C(=O)CCl)OCc1ccccc1 [Compound 317, Z-L-Phe chloromethyl ketone]
  Compound effect (percent receptor signaling in presence of test compound, relative lux units relative to the SCH23390 control): 124

## COc1cc2c(c(OC)c1OC)-c1ccc(OC)c(=O)cc1[C@@H](NC(C)=O)CC2 [Compound 319, Colchicine]
  Compound effect (percent receptor signaling in presence of test compound, relative lux units relative to the SCH23390 control): 131

## NC(N)=NOCC[C@H](N)C(=O)O.O=S(=O)(O)O [Compound 320, L-Canavanine sulfate]
  Compound effect (percent receptor signaling in presence of test compound, relative lux units relative to the SCH23390 control): 92

## NS(=O)(=O)c1cc2c(cc1Cl)NC(C1CC3C=CC1C3)NS2(=O)=O (stereo not drawn) [Compound 321, Cyclothiazide]
  Compound effect (percent receptor signaling in presence of test compound, relative lux units relative to the SCH23390 control): 93

## OC[C@H]1O[C@@H](n2cnc3c(NC4CCCCC4)ncnc32)[C@H](O)[C@@H]1O [Compound 322, N6-Cyclohexyladenosine]
  Compound effect (percent receptor signaling in presence of test compound, relative lux units relative to the SCH23390 control): 100

## CC[C@@]1(O)C(=O)OCc2c1cc1n(c2=O)Cc2cc3ccccc3nc2-1 [Compound 323, (S)-(+)-Camptothecin]
  % of the SCH23390 effect (percent inhibition of receptor response relative to the SCH23390 control): 93%
  Compound effect (percent receptor signaling in presence of test compound, relative lux units relative to the SCH23390 control): 7

## CCN(CC)C(C)C(=O)N1c2ccccc2Sc2ccccc21.Cl (stereo not drawn) [Compound 324, 10-(alpha-Diethylaminopropionyl)-phenothiazine hydrochloride]
  Compound effect (percent receptor signaling in presence of test compound, relative lux units relative to the SCH23390 control): 56

## CCCn1c(=O)c2[nH]c(C3CCCC3)nc2n(CCC)c1=O [Compound 327, 8-Cyclopentyl-1,3-dipropylxanthine]
  Compound effect (percent receptor signaling in presence of test compound, relative lux units relative to the SCH23390 control): 111

## Cn1c(=O)c2[nH]c(C3CCCC3)nc2n(C)c1=O [Compound 328, 8-Cyclopentyl-1,3-dimethylxanthine]
  Compound effect (percent receptor signaling in presence of test compound, relative lux units relative to the SCH23390 control): 93

## CN1CCN(c2nc3cc(C(F)(F)F)ccc3n3cccc23)CC1.O=C(O)/C=C\C(=O)O [Compound 330, CGS-12066A maleate]
[1]
  Compound effect (percent receptor signaling in presence of test compound, relative lux units relative to the SCH23390 control): 104%

## Cl.NCC(O)C1CCCCCCC1 (stereo not drawn) [Compound 331, 2-Cyclooctyl-2-hydroxyethylamine hydrochloride]
  Compound effect (percent receptor signaling in presence of test compound, relative lux units relative to the SCH23390 control): 95

## NCCc1c[nH]c2ccc(C(N)=O)cc12.O=C(O)/C=C\C(=O)O [Compound 332, 5-Carboxamidotryptamine maleate]
  Compound effect (percent receptor signaling in presence of test compound, relative lux units relative to the SCH23390 control): 119

## O=C(O)c1cc(O)c2ccc(Cl)cc2n1 [Compound 333, 7-Chlorokynurenic acid]
  Compound effect (percent receptor signaling in presence of test compound, relative lux units relative to the SCH23390 control): 79

## C[C@@](Cc1ccc(O)c(O)c1)(NN)C(=O)O [Compound 335, S-(-)-Carbidopa]
[1]
  Compound effect (percent receptor signaling in presence of test compound, relative lux units relative to the SCH23390 control): 112%

## CCNC(=O)[C@H]1O[C@@H](n2cnc3c(N)nc(NCCc4ccc(CCC(=O)O)cc4)nc32)[C@H](O)[C@@H]1O.Cl [Compound 337, CGS-21680 hydrochloride]
  Compound effect (percent receptor signaling in presence of test compound, relative lux units relative to the SCH23390 control): 112

## OC[C@H]1O[C@@H](n2cnc3c(NC4CCCC4)nc(Cl)nc32)[C@H](O)[C@@H]1O [Compound 338, 2-Chloro-N6-cyclopentyladenosine]
  Compound effect (percent receptor signaling in presence of test compound, relative lux units relative to the SCH23390 control): 92
